# From patent publication US7348427B2, “Antipathogenic benzamide compounds” (Genesoft Pharmaceuticals, Inc., priority 2001, dated 2008)
# Legend:
# [1] = tested on: Staphylococcus aureus (ATCC 13709, a methicillin sensitive strain (MSSA)); test: MIC, NCCLS broth microdilution assay; format: cell-based; settings: E = S. aureus ATCC 13709
# Source text: (§1) In vitro biological activity data were collected for a variety of microorganisms, including Bacillus cereus (ATCC 11778), Staphylococcus aureus (ATCC 27660, a methicillin resistant strain (MRSA); ATCC 13709, a methicillin sensitive strain (MSSA)); Streptococcus pneumoniae (ATCC 51422, a penicillin resistant strain (PRSP)), Enterococcus faecium (ATCC 51559, a vancomycin resistant strain (VRE)), and Staphylococcus epidermidis (ATCC 12228). Additionally, antifungal activity data were collected for Candida albicans (ATCC 38247).
# (§2) Compounds according to this invention were screened for their in vitro activities against selected species of bacteria and fungi. The minimal inhibition concentration (MIC) of these compounds was determined using the National Committee for Clinical Laboratory Standards (NCCLS) broth microdilution assay in microtiter plates, as set forth in: (1) the guidelines of the National. Committee for Clinical Laboratory Standards (NCCLS) Document M7-A4 (NCCLS, 1997); (2) the guidelines of the National Committee for Clinical Laboratory Standards (NCCLS) Document M11-A4 (NCCLS, 1997); and (3) the guidelines and reference method of the National Committee for Clinical Laboratory Standards (NCCLS) Document M27-T (NCCLS, 1995). For antifungal assays, the method recommended in Murray, P R., 1995 Manual of Clinical Microbiology (ASM Press, Washington, D.C.), was employed.
# [2] = tested on: Bacillus cereus (ATCC 11778); test: MIC, NCCLS broth microdilution assay; format: cell-based; settings: A = B. cereus ATCC 11778
# Source text: as §1, §2
# [3] = tested on: Staphylococcus aureus (ATCC 27660, a methicillin resistant strain (MRSA)); test: MIC, NCCLS broth microdilution assay; format: cell-based; settings: F = S. aureus ATCC 27660
# Source text: as §1, §2
# [4] = tested on: Candida albicans (ATCC 38247); test: Antifungal MIC assay; format: cell-based; settings: B = C. albicans ATCC 38247
# Source text: as §1, §2
# E. faecalis ATCC 29212 = test: MIC, NCCLS broth microdilution assay; format: cell-based, Enterococcus faecalis; settings: C = E. faecalis ATCC 29212
# Procedure: as §2
# S. pneumoniae ATCC 49619 = test: MIC, NCCLS broth microdilution assay; format: cell-based, Streptococcus pneumoniae; settings: H = S. pneumoniae ATCC 49619
# Procedure: as §2
SMILES,Minimum Inhibitory Concentration (MIC) [1],Minimum Inhibitory Concentration (MIC) [2],Minimum Inhibitory Concentration (MIC) [3],Minimum Inhibitory Concentration (MIC) [4] [µg/mL],Minimum Inhibitory Concentration (MIC) (E. faecalis ATCC 29212),Minimum Inhibitory Concentration (MIC) (S. pneumoniae ATCC 49619)
Cn1cc(NC(=O)c2cc(NC(=O)c3cc(NC(=O)c4ccc(F)cc4F)cn3C)cn2C)cc1C(=O)NCCCNC1CCCCC1 [Compound B-7],+++ (+++ = MIC ≦ 4),+++ (+++ = MIC ≦ 4),+++ (+++ = MIC ≦ 4),>32,+++ (+++ = MIC ≦ 4),+++ (+++ = MIC ≦ 4)
Cn1cc(NC(=O)c2cc(NC(=O)c3cc(NC(=O)c4ccc(F)cc4F)cn3C)cn2C)cc1C(=O)NCCCN1CCOCC1 [Compound B-8],++ (++ = 4 < MIC < 12),++ (++ = 4 < MIC < 12),++ (++ = 4 < MIC < 12),>32,++ (++ = 4 < MIC < 12),++ (++ = 4 < MIC < 12)
Cn1cc(NC(=O)c2ccc(F)cc2F)cc1C(=O)Nc1cc(C(=O)Nc2cc(C(=O)OCCN3CCCCC3)n(C)c2)n(C)c1 [Compound B-9],+++ (+++ = MIC ≦ 4),+++ (+++ = MIC ≦ 4),+++ (+++ = MIC ≦ 4),>32,+++ (+++ = MIC ≦ 4),+++ (+++ = MIC ≦ 4)
Cn1cc(NC(=O)c2ccc(F)cc2F)cc1C(=O)Nc1cc(C(=O)Nc2cc(C(=O)OCCN3CCOCC3)n(C)c2)n(C)c1 [Compound B-10],+ (+ = 12 ≦ MIC ≦ 32),+++ (+++ = MIC ≦ 4),+ (+ = 12 ≦ MIC ≦ 32),>32,+++ (+++ = MIC ≦ 4),+++ (+++ = MIC ≦ 4)
C[C@@H]1CN(CCNC(=O)c2cc(NC(=O)c3cc(NC(=O)c4ccc(F)cc4F)cn3C)cn2C)C[C@H](C)O1 [Compound B-12],++ (++ = 4 < MIC < 12),+++ (+++ = MIC ≦ 4),+++ (+++ = MIC ≦ 4),>32,+++ (+++ = MIC ≦ 4),+++ (+++ = MIC ≦ 4)
CCN(CC)CCNC(=O)c1cc(NC(=O)c2cc(NC(=O)c3ccc(F)cc3F)cn2C)cn1C [Compound B-13],++ (++ = 4 < MIC < 12),+ (+ = 12 ≦ MIC ≦ 32),+ (+ = 12 ≦ MIC ≦ 32),>32,++ (++ = 4 < MIC < 12),+++ (+++ = MIC ≦ 4)
Cn1cc(NC(=O)c2cc(NC(=O)c3ccc(F)cc3F)cn2C)cc1C(=O)NCCN1CCCCC1 [Compound B-14],+++ (+++ = MIC ≦ 4),++ (++ = 4 < MIC < 12),+++ (+++ = MIC ≦ 4),>32,+++ (+++ = MIC ≦ 4),+++ (+++ = MIC ≦ 4)
CN(C)CC(C)(C)CNC(=O)c1cc(NC(=O)c2cc(NC(=O)c3ccc(F)cc3F)cn2C)cn1C [Compound B-15],>32 µg/mL,>32 µg/mL,>32 µg/mL,>32,>32 µg/mL,+ (+ = 12 ≦ MIC ≦ 32)
Cn1cc(NC(=O)c2cc(NC(=O)c3ccc(F)cc3F)cn2C)cc1C(=O)NCCN1CCCC1 [Compound B-16],++ (++ = 4 < MIC < 12),++ (++ = 4 < MIC < 12),++ (++ = 4 < MIC < 12),>32,+++ (+++ = MIC ≦ 4),+++ (+++ = MIC ≦ 4)
Cn1cc(NC(=O)c2cc(NC(=O)c3cc(NC(=O)c4ccc(F)cc4F)cn3C)cn2C)cc1C(=O)NCCc1cccc[n+]1C [Compound B-17],++ (++ = 4 < MIC < 12),+++ (+++ = MIC ≦ 4),++ (++ = 4 < MIC < 12),>32,+ (+ = 12 ≦ MIC ≦ 32),++ (++ = 4 < MIC < 12)
